In patent publication US20260021167A1, “COMPOSITIONS AND METHODS FOR TREATING OR PREVENTING NEURODEGENERATIVE DISEASES” (Delaware State University, priority 2022, published 2026):
Like-named read-outs stand apart in the source and are kept apart here.

Assays:
Format in all cases: cell-based, rat
N27 cells [1] = assay: Cytotoxicity (LDH) assay after PFF exposure
Description: (§1) Cytotoxicity Assay. The lactate dehydrogenase (LDH) is a cytosolic enzyme that is released into the media during cellular stress and increased levels of cytotoxicity. The cytotoxicity assay was measured using reagents from the Pierce LDH Cytotoxicity Assay Kit (88954, Thermo). For the assay, 50 μL of media from each well after PFF exposure, followed by SENP-1 treatment, was put into wells of a new 96-well plate. The LDH reagents were prepared according to the protocol provided, and 50 μL of the LDH reagent was mixed into each well. The total 100 μL of media containing LDH and its reagent were incubated at 37° C. for 30 min, followed by the application of a stop solution. The mixture was analyzed using a spectrophotometer (SpectraMax M5e, Molecular devices) at 490 nm with a reference wavelength of 680 nm.
In this study, numerous commercially available SENP-1 inhibitors were tested for the recovery effects from preformed fibrils of alpha-synuclein (PFF)-induced PD models in vitro. The screening process includes several SENP-1 inhibitors, including specific SENP-1 inhibitors (e.g., SUMO-2 Aldehyde, Momordin lc, streptonigrin, hinokiflavonem, and siRNAs of SENP-1) and nonspecific SENP-1 inhibitors (e.g., oleanolic acid, gallic acid), in N27 dopaminergic cells after the exposure of PFF for 24 hrs.

N27 dopaminergic cells = assay: Screening of SENP-1 inhibitors (LDH, MTT, ROS, Thioflavin-T) in PFF-induced PD model in vitro; details: N27 dopaminergic cells after exposure to PFF for 24 hrs
Source text: (§2) Cell Viability Assay. The MTT assay is a colorimetric assay that is based on the conversion of water-soluble MTT (3-(4,5-dimethylthiazol-2-yl)-2,5-diphenyltetrazolium bromide) into formazan crystal by mitochondrial dehydrogenase enzymes, soluble in 100% DMSO. The resulting solution is purple in color, and the color intensity is proportional to the viable cells for each well in a 96-well plate. A variety of SENP-1 inhibitors, such as SUMO-2 aldehyde, Momordin lc, streptonigrin, hinokiflavone, oleanolic acid and siRNA of SENP-1, were treated in N27 cells after PFF (1 μg/ml) exposure for 24 h. After adding 5 mM MTT dye to cells, the color intensity in MTT assays was measured using a spectrophotometer (SpectraMax M5e, Molecular devices, Dover, USA), at 570 nm with a reference wavelength of 630 nm. The cells were incubated with the MTT reagent (ab211091, Abcam) at 37° C. for 3 h, followed by solubilizing the formazan crystals in solution.
as §1
ROS Levels and Thioflavin-T Assessment. The reactive oxygen species (ROS) is a released byproduct during oxidative stress. On the other hand, thioflavin-T is an assay used to understand the level of protein aggregation that can be detrimental to cell survival. In order to assess the level of oxidative stress, all the SENP-1 inhibitors treated cells were incubated in media containing 5 μg/mL of the ROS reagent CellROX deep red reagent (C10422, Thermo Fisher Scientific) and 25 μg/mL of thioflavin-T reagent (CAS: 2390-54-7, Acros Organics) at 37° C. for 30 min. The cells were then washed 3 times with warm phosphate-buffered saline (PBS) without Ca^2+ or Mg^2+ (137 mM NaCl, 2.7 mM KCl, 4.3 mM Na2HPO4, and 1.47 mM KH2PO4), and several images from each well were collected using EVOS FL Cell Imaging Systems (Invitrogen, MA, USA). […] The intensity of red fluorescence corresponding to ROS levels and green labels corresponding to protein aggregation was analyzed by blinded raters using ImageJ. […]

N27 cells [2] = assay: ROS level (CellROX deep red) after PFF treatment; details: compared to PFF only control
Description: ROS Levels and Thioflavin-T Assessment. The reactive oxygen species (ROS) is a released byproduct during oxidative stress. On the other hand, thioflavin-T is an assay used to understand the level of protein aggregation that can be detrimental to cell survival. In order to assess the level of oxidative stress, all the SENP-1 inhibitors treated cells were incubated in media containing 5 μg/mL of the ROS reagent CellROX deep red reagent (C10422, Thermo Fisher Scientific) and 25 μg/mL of thioflavin-T reagent (CAS: 2390-54-7, Acros Organics) at 37° C. for 30 min. The cells were then washed 3 times with warm phosphate-buffered saline (PBS) without Ca^2+ or Mg^2+ (137 mM NaCl, 2.7 mM KCl, 4.3 mM Na2HPO4, and 1.47 mM KH2PO4), and several images from each well were collected using EVOS FL Cell Imaging Systems (Invitrogen, MA, USA). A minimum of 2 wells were dedicated to each group, and the experiments were repeated 3-4 times independently (total replicated: n=8-10/group). The intensity of red fluorescence corresponding to ROS levels and green labels corresponding to protein aggregation was analyzed by blinded raters using ImageJ.

N27 cells [3] = assay: Cell viability (MTT) assay after PFF exposure; details: N27 cells after PFF (1 μg/ml) exposure for 24 h; compared to PFF only control
Source text: as §2
In this study, numerous commercially available SENP-1 inhibitors were tested for the recovery effects from preformed fibrils of alpha-synuclein (PFF)-induced PD models in vitro. […]

SMILES | cytotoxicity derived from PFF (LDH assay) (N27 cells [1]) | efficacy in preventing protein aggregation-mediated damage and reversing PFF-induced damage (LDH, MTT, ROS, Thioflavin-T assays) (N27 dopaminergic cells) | level of ROS (N27 cells [2]) | cell viability from PFF-mediated toxicity (MTT assay) (N27 cells [3]) | cytotoxicity derived from PFF (LDH assay) (N27 cells [1]; N27 cells, PFF treatment, compared to PFF only control)
O=c1cc(-c2ccc(Oc3c(O)cc4oc(-c5ccc(O)cc5)cc(=O)c4c3O)cc2)oc2cc(O)cc(O)c12 [Hinokiflavone, hinokiflavone] | significantly reduced the cytotoxicity | – | – | – | –
O=C(O)c1cc(O)c(O)c(O)c1 [gallic acid] | – | did not show an efficacy | – | – | –
CC1(C)CC[C@]2(C(=O)O)CC[C@]3(C)C(=CC[C@@H]4[C@@]5(C)CC[C@H](O)C(C)(C)[C@@H]5CC[C@]43C)[C@@H]2C1 [oleanolic acid] | – | did not show an efficacy | – | – | –
COC1=C(N)C(=O)c2nc(-c3nc(C(=O)O)c(C)c(-c4ccc(OC)c(OC)c4O)c3N)ccc2C1=O [Streptonigrin, streptonigrin] | – | clearly efficacious | reduced the level of ROS | significantly enhanced the cell viability | significantly reduced the cytotoxicity
